Results: patent US11549123B2, “Plant EPSP synthases and methods of use” (PIONEER HI-BRED INTERNATIONAL, INC., priority 2015, dated 2023)
Positions count from the first letter of the chain named.

How the values were obtained:
Type in all cases: biochemical
[1] = molecular target: T1, Zea mays EPSPS variant L-A at positions 103-107 (Zea mays, UniProt O24566, P106A/T102L); test: EPSPS substrate saturation kinetics, maize variant 103L 107A
T1 sequence (O24566 with tags, fused parts or gaps T102L/P106A): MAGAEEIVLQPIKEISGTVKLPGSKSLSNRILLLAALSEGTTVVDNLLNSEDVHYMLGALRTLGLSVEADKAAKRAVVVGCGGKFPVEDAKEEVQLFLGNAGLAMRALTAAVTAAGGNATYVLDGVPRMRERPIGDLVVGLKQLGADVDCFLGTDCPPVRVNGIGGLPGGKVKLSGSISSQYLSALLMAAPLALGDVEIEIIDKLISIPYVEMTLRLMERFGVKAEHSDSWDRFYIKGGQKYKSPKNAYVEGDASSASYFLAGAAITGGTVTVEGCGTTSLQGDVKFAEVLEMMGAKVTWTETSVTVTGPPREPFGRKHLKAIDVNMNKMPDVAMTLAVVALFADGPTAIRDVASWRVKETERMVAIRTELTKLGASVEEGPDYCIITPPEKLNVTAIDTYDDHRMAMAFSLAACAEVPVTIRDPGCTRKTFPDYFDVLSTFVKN
Description: (§1) EPSPS activity was determined by quantifying the phosphate generated from the EPSPS reaction. Release of inorganic phosphate was coupled to reaction with 2-amino-6-mercapto-7-methylpurine ribonucleoside, catalyzed by purine-nucleoside phosphorylase (M R Webb, Proc. Natl. Acad. Sci. 89:4884-4887, 1992). The absorbance change that occurs was monitored at 360 nm, where the extinction is 11,200 M^−1 cm^−1, with a Spectramax plate reader (Molecular Devices). To determine kinetic parameters, the varied substrate was present at seven concentrations (the eighth being the blank, containing no substrate) ranging from 4 to 400 uM and the unvaried substrate present at saturation. Six microliters of 50-fold concentrated stock solutions of the varied substrate were placed in the wells of the 96-well assay plate and reactions were started with the addition of a mixture containing 25 mM Hepes, pH 7, 100 mM KCl, 0.3 mM 2-amino-6-mercapto-7-methylpurine ribonucleosde, 1 uM (1 unit/ml) purine-nucleoside phosphorylase (Sigma N8264) and 200 uM of the non-varied substrate. Reactions were monitored with a Spectramax plate reader. The Michaelis-Menten kinetics protocol of the Spectramax software was customized for the substrate concentrations used. The software returns values of KM and Vmax using the Lineweaver-Burke transformation of the Michaelis-Menten equation. To determine kcat, Vmax (uM/min) was divided by the enzyme concentration (uM). […] KI was then calculated from the following form of the Michaelis-Menten equation for competitive inhibition: KI=KM[I]/(KM app−KM) KM approximates the dissociation constant of the enzyme-substrate complex while kcat is the rate of conversion of substrate to product when the substrate concentration is saturating. kcat/KM is a widely accepted parameter for catalytic efficiency when substrate concentration is low (˜KM). […] The parameter kcat/KM×KI is used to quantify both catalytic efficiency and insensitivity and thus the overall fitness of the enzyme. […]

[2] = molecular target: T2, Zea mays EPSPS variant L-T at positions 103-107 (Zea mays, UniProt O24566, P106T/T102L); test: EPSPS substrate saturation kinetics, maize variant 103L 107T
T2 sequence (O24566 with tags, fused parts or gaps T102L/P106T): T1 sequence (O24566 with tags, fused parts or gaps T102L/P106A) with A107T
Description: as §1

[3] = molecular target: T3, Helianthus annuus EPSPS, native, SEQ ID NO:9 (Helianthus annuus, UniProt A0A251S0N3); test: EPSPS substrate saturation kinetics, native sunflower
T3 sequence (A0A251S0N3 67-518): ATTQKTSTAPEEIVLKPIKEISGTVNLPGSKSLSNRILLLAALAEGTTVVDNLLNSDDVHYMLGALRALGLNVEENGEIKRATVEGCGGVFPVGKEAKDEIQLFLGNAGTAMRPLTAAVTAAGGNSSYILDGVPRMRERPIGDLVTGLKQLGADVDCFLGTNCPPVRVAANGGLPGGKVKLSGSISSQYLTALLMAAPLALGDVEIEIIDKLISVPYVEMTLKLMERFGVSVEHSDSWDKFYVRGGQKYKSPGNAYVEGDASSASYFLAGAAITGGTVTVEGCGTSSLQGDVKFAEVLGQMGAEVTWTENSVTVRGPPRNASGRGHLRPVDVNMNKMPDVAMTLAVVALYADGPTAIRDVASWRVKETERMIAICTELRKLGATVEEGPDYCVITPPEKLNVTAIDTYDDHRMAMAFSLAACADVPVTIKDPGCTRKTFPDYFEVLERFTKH
Description: EPSPS activity was determined by quantifying the phosphate generated from the EPSPS reaction. Release of inorganic phosphate was coupled to reaction with 2-amino-6-mercapto-7-methylpurine ribonucleoside, catalyzed by purine-nucleoside phosphorylase (M R Webb, Proc. Natl. Acad. Sci. 89:4884-4887, 1992). The absorbance change that occurs was monitored at 360 nm, where the extinction is 11,200 M^−1 cm^−1, with a Spectramax plate reader (Molecular Devices). To determine kinetic parameters, the varied substrate was present at seven concentrations (the eighth being the blank, containing no substrate) ranging from 4 to 400 uM and the unvaried substrate present at saturation. Six microliters of 50-fold concentrated stock solutions of the varied substrate were placed in the wells of the 96-well assay plate and reactions were started with the addition of a mixture containing 25 mM Hepes, pH 7, 100 mM KCl, 0.3 mM 2-amino-6-mercapto-7-methylpurine ribonucleosde, 1 uM (1 unit/ml) purine-nucleoside phosphorylase (Sigma N8264) and 200 uM of the non-varied substrate. Reactions were monitored with a Spectramax plate reader. The Michaelis-Menten kinetics protocol of the Spectramax software was customized for the substrate concentrations used. The software returns values of KM and Vmax using the Lineweaver-Burke transformation of the Michaelis-Menten equation. To determine kcat, Vmax (uM/min) was divided by the enzyme concentration (uM). […] KI was then calculated from the following form of the Michaelis-Menten equation for competitive inhibition: KI=KM[I]/(KM app−KM) KM approximates the dissociation constant of the enzyme-substrate complex while kcat is the rate of conversion of substrate to product when the substrate concentration is saturating. kcat/KM is a widely accepted parameter for catalytic efficiency when substrate concentration is low (˜KM). […] The parameter kcat/KM×KI is used to quantify both catalytic efficiency and insensitivity and thus the overall fitness of the enzyme.
Native EPSPS amino acid sequences of rice (Oryza sativa) (SEQ ID NO:7), sorghum (Sorghum halepense) (SEQ ID NO:8), and sunflower (Helianthus annus) (SEQ ID NO:9) including the chloroplast transit peptide sequences were assembled and analyzed for mapping the corresponding amino acid mutations from the maize 868-H6. If complete EPSPS sequences were not available, appropriate adjustments were made based on sequence alignments and conserved residue mapping.
There is no complete sequence available for Helianthus annuus. […]
ChloroP Prediction Server (Emanuelsson, O. et al. 1999. Protein Sci. 8(5):978-84) was used to approximate the amino terminus of the mature EPSPS proteins. […] The synthetic genes were cloned into a plasmid vector and expressed, purified and analyzed as described in Example 1.

[4] = PEP as substrate, glyphosate as inhibitor

With `C=C(OP(=O)(O)O)C(=O)O` [PEP, phosphoenolpyruvate] the kcat ([1]; PEP varied) was 125, the kcat ([2]; PEP varied) was 184 and the kcat ([3]; PEP varied) was 29.52 s⁻¹. For the same compound, the Km ([3]; read-out: KM (PEP), PEP varied) was 18.8 µM.
With `O=C(O)CNCP(=O)(O)O` [glyphosate, N-phosphonomethylglycine] the Ki [1] was 463 µM, the “(kcat/KM)*KI” value [1, 4] was 1143 and the Ki [2] was 289 µM. For the same compound, the “(kcat/KM)*KI” value [2, 4] was 1163, the Ki [3] was 0.15 µM and the “(kcat/KM)*KI” value [3, 4] was 14.
